Data from ChEMBL document CHEMBL3714731, “Heterocyclic compounds for the inhibition of pask” (2014).

Key:
[1] = biological target: T1, PAS domain-containing serine/threonine-protein kinase (Homo sapiens, UniProt Q96RG2); experiment: Inhibition of human recombinant PASK using Ulight-peptide substrate incubated for 2 hrs by TR-FRET assay
[2] = biological target: T1, PAS domain-containing serine/threonine-protein kinase; experiment: Inhibition of N-terminal GST-tagged human recombinant PASK kinase domain (879 to 1323 residues) expressed in insect cells using MBP protein substrate incubated for 120 mins in presence of [33P]ATP by scintillation counting based radiochemical assay
[3] = biological target: Casein kinase II subunit alpha' (Homo sapiens, UniProt P19784); experiment: Inhibition of GST-tagged full-length purified human CK2a2 using RRRDDDSDDD substrate incubated for 120 mins in presence of [33P]ATP by scintillation counting based biochemical assay
Chain of Casein kinase II subunit alpha' (P19784 whole entry): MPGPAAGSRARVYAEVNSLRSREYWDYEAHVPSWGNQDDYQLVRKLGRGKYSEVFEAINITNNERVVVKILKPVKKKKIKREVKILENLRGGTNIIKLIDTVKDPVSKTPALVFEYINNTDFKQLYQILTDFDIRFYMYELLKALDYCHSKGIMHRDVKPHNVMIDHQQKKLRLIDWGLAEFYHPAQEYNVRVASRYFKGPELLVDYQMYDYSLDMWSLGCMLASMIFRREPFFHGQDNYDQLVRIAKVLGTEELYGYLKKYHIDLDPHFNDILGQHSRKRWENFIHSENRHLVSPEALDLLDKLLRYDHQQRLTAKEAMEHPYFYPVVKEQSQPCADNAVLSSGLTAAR

[4] = biological target: Serine/threonine-protein kinase pim-1 (Homo sapiens, UniProt P11309); experiment: Inhibition of human full-length 6xHis-tagged PIM1 expressed in insect cells using S6K1Rsk2 peptide-2 substrate in presence of [33P]ATP incubated for 120 mins by scintillation counting based biochemical assay
Chain of Serine/threonine-protein kinase pim-1 (P11309 whole entry): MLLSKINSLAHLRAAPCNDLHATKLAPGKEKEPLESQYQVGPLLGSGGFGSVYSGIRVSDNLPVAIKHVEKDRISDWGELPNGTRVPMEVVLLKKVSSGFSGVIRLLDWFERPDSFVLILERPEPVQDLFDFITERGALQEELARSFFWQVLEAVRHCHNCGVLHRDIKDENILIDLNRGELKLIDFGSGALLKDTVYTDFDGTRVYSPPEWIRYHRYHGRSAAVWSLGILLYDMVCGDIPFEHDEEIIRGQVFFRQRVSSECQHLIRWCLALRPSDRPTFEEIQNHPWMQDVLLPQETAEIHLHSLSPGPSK

T1 sequence (Q96RG2 whole entry, the tested form may be a part): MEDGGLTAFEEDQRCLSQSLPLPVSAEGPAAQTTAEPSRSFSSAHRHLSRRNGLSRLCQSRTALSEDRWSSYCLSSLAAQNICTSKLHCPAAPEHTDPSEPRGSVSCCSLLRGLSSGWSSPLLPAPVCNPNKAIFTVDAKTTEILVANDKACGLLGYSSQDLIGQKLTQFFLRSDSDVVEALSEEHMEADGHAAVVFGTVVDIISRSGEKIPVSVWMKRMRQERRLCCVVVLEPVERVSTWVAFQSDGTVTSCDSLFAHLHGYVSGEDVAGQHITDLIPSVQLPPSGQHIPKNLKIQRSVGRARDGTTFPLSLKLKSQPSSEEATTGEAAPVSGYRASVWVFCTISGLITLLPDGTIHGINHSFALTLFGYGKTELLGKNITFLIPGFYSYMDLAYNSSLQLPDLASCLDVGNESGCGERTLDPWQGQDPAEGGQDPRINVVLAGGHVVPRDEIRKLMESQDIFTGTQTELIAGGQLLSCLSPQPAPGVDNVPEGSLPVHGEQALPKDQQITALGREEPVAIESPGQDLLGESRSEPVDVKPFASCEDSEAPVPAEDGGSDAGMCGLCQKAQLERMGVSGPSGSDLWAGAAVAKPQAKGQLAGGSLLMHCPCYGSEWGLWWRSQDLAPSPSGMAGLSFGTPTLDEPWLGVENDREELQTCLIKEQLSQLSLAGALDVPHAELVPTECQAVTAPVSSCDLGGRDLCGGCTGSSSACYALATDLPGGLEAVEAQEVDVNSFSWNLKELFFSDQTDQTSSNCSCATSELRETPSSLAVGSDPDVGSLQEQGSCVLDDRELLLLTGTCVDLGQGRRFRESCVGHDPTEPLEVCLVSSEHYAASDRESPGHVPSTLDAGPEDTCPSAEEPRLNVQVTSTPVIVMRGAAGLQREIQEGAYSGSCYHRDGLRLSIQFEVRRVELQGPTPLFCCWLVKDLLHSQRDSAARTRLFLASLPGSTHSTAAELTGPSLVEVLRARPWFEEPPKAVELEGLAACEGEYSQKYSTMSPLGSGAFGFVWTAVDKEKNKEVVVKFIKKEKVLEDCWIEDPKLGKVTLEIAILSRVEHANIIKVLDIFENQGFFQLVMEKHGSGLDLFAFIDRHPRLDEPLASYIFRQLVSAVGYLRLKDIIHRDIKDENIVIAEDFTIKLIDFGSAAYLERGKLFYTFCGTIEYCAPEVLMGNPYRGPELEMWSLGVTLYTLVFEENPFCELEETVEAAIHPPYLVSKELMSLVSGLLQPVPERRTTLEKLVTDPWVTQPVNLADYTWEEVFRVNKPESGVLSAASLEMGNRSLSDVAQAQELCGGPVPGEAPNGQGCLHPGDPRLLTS

With `Cc1coc(-c2cnn3c(=O)cc(-c4ccc5[nH]ncc5c4)[nH]c23)n1` the IC50 [1] was no more than 10 µM.
Work on `COc1cc(-c2cc(=O)n3ncc(CC#N)c3[nH]2)ccc1Cl` yielded an IC50 [2] of no more than 10 µM, an IC50 [3] of no more than 10 µM and an IC50 [4] of no more than 10 µM.
Compound `CCc1cnc(-c2cnn3c(=O)cc(-c4ccc5c(cnn5CC)c4)[nH]c23)o1` has an IC50 [2] of no more than 10 µM, an IC50 [3] of no more than 10 µM and an IC50 [4] of no more than 10 µM.
